# Patent US9771335B2 (THE JOHNS HOPKINS UNIVERSITY, priority 2015, dated 2017)
# “Also recorded” adds a separate entry of the source.
# What was measured:
# hNav1.1 = target: T1, hNav1.1 (Homo sapiens, UniProt P35498); assay: Two-electrode voltage-clamp recording from Xenopus oocytes expressing hNav1.1 with β1; type: cell-based; conditions: for hNav1.1 Inactivation (V1/2), steady-state inactivation / hNav1.1 Activation (V1/2): 100 μM drug, Xenopus oocytes, DMSO 1% or less; for hNav1.1 Activation (V1/2): at least one hour incubation, ** = p<0.005 vs DMSO; for effect on hNav1.1 opening / gating (in words): G/Gmax vs DMSO control; for effect on hNav1.1 persistent current (in words): end of a 50 ms test pulse; for depolarizing shift in hNav1.1 channel activation voltage: vs DMSO control
# T1 construct: host or cells: Xenopus oocytes (cRNA injection)
# hNav1.6 = target: T2, hNav1.6 (Homo sapiens, UniProt Q9UQD0); assay: Two-electrode voltage-clamp recording from Xenopus oocytes expressing hNav1.6 with β1; type: cell-based; conditions: for hNav1.6 Activation (V1/2) / hNav1.6 Inactivation (V1/2), steady-state inactivation: 100 μM drug, Xenopus oocytes, DMSO 1% or less
# T2 construct: host or cells: Xenopus oocytes (cRNA injection)
# hNav1.2 = target: T3, hNav1.2 (Homo sapiens, UniProt Q99250); assay: Two-electrode voltage-clamp recording from Xenopus oocytes expressing hNav1.2 with β1; type: cell-based; conditions: for effect on hNav1.2 opening / tested gating parameters (in words): 100 μM, vs DMSO control; for hNav1.2 Activation (V1/2) / hNav1.2 Inactivation (V1/2), steady-state inactivation: 100 μM drug, Xenopus oocytes, DMSO 1% or less
# T3 construct: host or cells: Xenopus oocytes (cRNA injection)
# hNav1.3 = target: T4, hNav1.3 (Homo sapiens, UniProt Q9NY46); assay: Two-electrode voltage-clamp recording from Xenopus oocytes expressing hNav1.3 with β1; type: cell-based; conditions: for effect on hNav1.3 opening / tested gating parameters (in words): 100 μM, vs DMSO control; for hNav1.3 Activation (V1/2) / hNav1.3 Inactivation (V1/2), steady-state inactivation: 100 μM drug, Xenopus oocytes, DMSO 1% or less
# T4 construct: host or cells: Xenopus oocytes (cRNA injection)
# [1] = test system: picrotoxin-induced generalized seizures in male Cr1:CF1 mice; assay: Picrotoxin seizure induction; type: in vivo
# Protocol: (§1) Animal husbandry and drug administration. Male Cr1:CF1 mice (10-12 weeks old, Charles River) were housed under a 12 hour light-dark cycle with free access to food and water and all experiments were carried out between 10 am and 4 pm. 1-[phenyl-methyl]-1H-1,2,3-triazole-4-carboxamide-5-methyl (Compound B) (Sigma Aldrich) was suspended in a 40% solution of cyclodextrin (Sigma Aldrich) in sterile saline (0.9%) and 15 minutes prior to each seizure induction paradigm, 75 mg/kg of compound B was administered via intraperitoneal injection (ip) injection. Vehicle treated animals were similarly administrated 40% cyclodextrin and served as the controls for each experiment. The Emory University Institutional Animal Care and Use Committee approved all experimental protocols involving mice.
# Seizure induction paradigms and analyses. Picrotoxin seizure induction—15 minutes prior to i.p. injection of picrotoxin (10 mg/kg, Sigma Aldrich), mice were administered vehicle or compound B (n=12 per group). Latencies to the first myoclonic jerk, forelimb clonus, and generalized tonic-clonic seizure were compared between compound B and vehicle-treated mice. The myoclonic jerk is characterized by a sudden jerk of the upper body whereas forelimb clonus involves rapid movement of the forelimbs for at least 5s. Finally, the generalized tonic-clonic seizure involves the loss of postural control with rapid movement of the limbs for at least 5s.
# Statistical analysis. A Student's t-test was used to identify statistically significant differences in latencies between vehicle- and compound B-treated groups for each seizure phenotype following administration of flurothyl and picrotoxin. […] All data are presented as the mean±s.e.m.; p values <0.05 were considered significant.
# α1/β2/γ2 GABAA receptor = target: T5, α1/β2/γ2 GABAA receptor (Homo sapiens, UniProt P14867+P18507+P47870); assay: GABAA receptor activation in oocytes held at −70 mV; type: cell-based; conditions: 100 μM; 5 μM muscimol as activator control
# T5 construct: expressed in transfected cells; host or cells: oocytes (heterologous expression inferred)
# T5 sequence (P14867 28-456): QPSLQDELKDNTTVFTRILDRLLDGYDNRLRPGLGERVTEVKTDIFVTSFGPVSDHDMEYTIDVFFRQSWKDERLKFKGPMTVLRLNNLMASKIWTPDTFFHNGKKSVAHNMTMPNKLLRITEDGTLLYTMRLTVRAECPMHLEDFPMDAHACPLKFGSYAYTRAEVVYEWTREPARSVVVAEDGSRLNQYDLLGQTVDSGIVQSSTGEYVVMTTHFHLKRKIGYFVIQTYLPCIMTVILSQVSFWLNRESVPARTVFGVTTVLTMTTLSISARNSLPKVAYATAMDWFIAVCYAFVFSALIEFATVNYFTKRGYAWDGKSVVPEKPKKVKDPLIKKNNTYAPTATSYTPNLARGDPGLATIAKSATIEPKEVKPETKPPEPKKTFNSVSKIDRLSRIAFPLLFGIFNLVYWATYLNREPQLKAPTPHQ
# T5 sequence (P47870 25-512 limits assumed): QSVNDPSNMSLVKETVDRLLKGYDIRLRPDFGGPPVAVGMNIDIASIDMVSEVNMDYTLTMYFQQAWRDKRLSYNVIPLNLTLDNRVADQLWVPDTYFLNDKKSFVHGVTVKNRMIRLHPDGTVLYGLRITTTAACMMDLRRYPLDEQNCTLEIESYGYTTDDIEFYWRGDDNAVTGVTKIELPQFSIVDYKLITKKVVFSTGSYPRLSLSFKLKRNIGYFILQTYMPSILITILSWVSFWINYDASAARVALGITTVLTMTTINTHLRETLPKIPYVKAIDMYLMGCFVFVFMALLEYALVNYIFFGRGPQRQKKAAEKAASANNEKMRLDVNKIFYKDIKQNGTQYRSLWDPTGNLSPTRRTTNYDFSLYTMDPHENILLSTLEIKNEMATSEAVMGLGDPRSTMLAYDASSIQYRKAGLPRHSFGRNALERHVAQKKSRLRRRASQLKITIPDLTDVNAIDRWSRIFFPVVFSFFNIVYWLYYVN
# T5 sequence (P18507 40-475): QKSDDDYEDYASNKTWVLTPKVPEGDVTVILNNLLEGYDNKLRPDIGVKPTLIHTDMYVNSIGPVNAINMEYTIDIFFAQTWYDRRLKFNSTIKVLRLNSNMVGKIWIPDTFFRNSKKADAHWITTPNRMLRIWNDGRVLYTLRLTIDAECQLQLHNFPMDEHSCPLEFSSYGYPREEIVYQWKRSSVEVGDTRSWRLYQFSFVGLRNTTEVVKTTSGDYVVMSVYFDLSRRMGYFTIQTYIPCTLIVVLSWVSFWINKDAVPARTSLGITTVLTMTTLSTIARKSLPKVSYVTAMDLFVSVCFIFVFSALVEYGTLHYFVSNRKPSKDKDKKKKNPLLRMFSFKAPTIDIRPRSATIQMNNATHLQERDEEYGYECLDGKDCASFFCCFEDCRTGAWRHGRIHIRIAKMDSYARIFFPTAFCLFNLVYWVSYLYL
# Description: Oocytes were kept at −70 mV throughout the experiment.
# [2] = test system: 6 Hz (17 mA) induced partial seizures in male Cr1:CF1 mice; assay: 6 Hz psychomotor seizure induction; type: in vivo; conditions: 75 mg/kg ip, p<0.0001
# Protocol: as §1
# 6 Hz psychomotor seizure induction. Topical anesthetic (0.5% tetracaine hydrochloride ophthalmic solution) was applied to the cornea 30 minutes before testing. Fifteen minutes prior to seizure induction, mice were administrated vehicle or compound B (n=12 per group). Each mouse was manually restrained and corneal stimulation (0.2 ms pulse, 6 Hz, 3s) was performed at a current intensity of 17 mA (ECT Unit 57800; Ugo Basile, Comerio Italy). […]
# [3] = test system: flurothyl-induced generalized seizures in male Cr1:CF1 mice; assay: Flurothyl seizure induction; type: in vivo; conditions: 75 mg/kg ip, vs vehicle, p=0.6
# Protocol: as §1
# Flurothyl Seizure induction. Latencies to flurothyl-induced seizures were determined as previously described (Neurobiol Dis 49C, 211-220 (2012)). Briefly, flurothyl (2,2,2-trifluroethylether; Sigma Aldrich) was dispensed at a rate of 20 μl/minute into a Plexiglas chamber and latencies to three behavioral phenotypes were compared between vehicle-treated and compound B-treated (75 mg/kg) mice (n=12 per group): 1) the first myoclonic jerk, 2) a generalized tonic-clonic seizure, and 3) a generalized tonic-clonic seizure with tonic extension. […]
# Solubility of rufinamide = type: physicochemical
# [4] = 75 mg/kg ip 15 minutes prior to picrotoxin 10 mg/kg, vs vehicle
Compound,"hNav1.1 Inactivation (V1/2), steady-state inactivation (hNav1.1) [mV]",hNav1.1 Activation (V1/2) (hNav1.1) [mV],effect on hNav1.1 opening / gating (in words) (hNav1.1; 100 μM),effect on hNav1.1 persistent current (in words) (hNav1.1; 100 μM),"effect on hNav1.6 opening / tested gating parameters (in words) (hNav1.6; 100 μM, vs DMSO control)",effect on hNav1.2 opening / tested gating parameters (in words) (hNav1.2),effect on hNav1.3 opening / tested gating parameters (in words) (hNav1.3),also measured
"NC(=O)c1nnn(Cc2cccc(F)c2)c1N [Compound A, 1-[(3-fluorophenyl)methyl]-1H-1,2,3-Triazole-4-carboxamide-5-amine]",−50.5 ± 1.2,−30.8 ± 1.0,clearly inhibit hNav1.1 opening,neither of these compounds influences,–,–,–,–
"CCc1c(C(N)=O)nnn1Cc1ccccc1 [Compound F, 1-(phenylmethyl)-1H-1,2,3-triazole-4-carboxamide-5-ethyl]",–,–,inhibits hNav1.1 opening,does not influence,not significant,not significant,not significant,effect on hNav1.1 steady-state inactivation (in words) (hNav1.1; 100 μM): does not influence; depolarizing shift in hNav1.1 channel activation voltage (hNav1.1; 100 μM): ~+12 mV
"COC(=O)c1nnn(Cc2c(F)cccc2F)c1C [Compound L, 1-[(2,6-difluorophenyl)methyl]-1H-1,2,3-triazole-carboxymethyl-5-methyl]",–,–,much smaller compared to compound B,–,–,–,–,"shift of midpoint of hNav1.6 channel availability (steady-state inactivation) (hNav1.6; 100 μM, vs DMSO control): ~−20 mV"
"Cc1c(C(N)=O)nnn1Cc1ccccc1 [Compound B, 1-[phenyl-methyl]-1H-1,2,3-Triazole-4-carboxamide-5-methyl]",−49.4 ± 0.3,−27.4 ± 1.0,more efficaciously when compared to rufinamide; also recorded: clearly inhibit hNav1.1 opening,do not affect persistent current,unaltered,unaltered,unaltered,"hNav1.6 Activation (V1/2) (hNav1.6): −23.8 ± 1.9 mV; hNav1.6 Inactivation (V1/2), steady-state inactivation (hNav1.6): −62.6 ± 0.7 mV; frequency of the behavioral seizures vs vehicle, picrotoxin ([1]; 75 mg/kg ip): no difference; average latency to forelimb clonus (FC), picrotoxin [1, 4]: no statistically significant differences; average latency to the first myoclonic jerk (MJ), picrotoxin [1, 4]: no statistically significant differences; hNav1.2 Activation (V1/2) (hNav1.2): −23.6 ± 1.1 mV; hNav1.2 Inactivation (V1/2), steady-state inactivation (hNav1.2): −53.6 ± 1.2 mV; effect on entry or voltage-dependence of hNav1.1 slow inactivation (in words) (hNav1.1): do not influence; depolarizing shift in hNav1.1 channel activation voltage (hNav1.1; 100 μM): ~+11 mV; Voltage-dependence of SI (V), V1/2 of hNav1.1 slow inactivation (hNav1.1; oocytes expressing hNav1.1, Boltzmann fit): −43.2 ± 1.3 mV; Entry into SI (T), time constant of entry into hNav1.1 slow inactivation (hNav1.1; oocytes expressing hNav1.1, single exponential fit): 5.5 ± 0.4 s; activation of the α1/β2/γ2 GABAA receptor (in words) (α1/β2/γ2 GABAA receptor): do not activate; also recorded: do not evoke inward GABAA-mediated currents; severity of seizures vs vehicle (modified Racine scale), 6 Hz [2]: dramatically less severe; also recorded: typically less severe; average latency to the MJ, flurothyl [3]: comparable; hNav1.3 Activation (V1/2) (hNav1.3): −25.8 ± 1.4 mV; hNav1.3 Inactivation (V1/2), steady-state inactivation (hNav1.3): −50.0 ± 0.8 mV"
"1-[(2,6-difluorophenyl)methyl]-1H-1,2,3-triazole-carboxymethyl-5-methyl [Compound L]",–,–,only slightly inhibits hNav1.1 opening,–,–,not significant,not significant,effect on hNav1.6 steady-state inactivation (in words) (hNav1.6; 100 μM): dramatically affect hNav1.6 steady-state inactivation
"NC(=O)c1nnn(Cc2ccc(F)cc2)c1N [Compound D, 1-[(4-fluorophenyl)methyl]-1H-1,2,3-Triazole-4-carboxamide-5-amine]",−49.8 ± 1.6,−32.5 ± 2.3,not significant,–,–,–,–,–
"NC(=O)c1cn(Cc2c(F)cccc2F)nn1 [Rufinamide, 1-[(2,6-difluorophenyl)methyl]-1H-1,2,3-Triazole-4-carboxamide, reference compound]",−47.8 ± 1.6,−30.6 ± 0.9,dramatic depolarizing shift; also recorded: inhibits hNav1.1 opening,do not affect persistent current,not inhibited; also recorded: not significant,not inhibited,not inhibited,"hNav1.6 Activation (V1/2) (hNav1.6): −28.1 ± 0.8 mV; hNav1.6 Inactivation (V1/2), steady-state inactivation (hNav1.6): −60.0 ± 0.7 mV; solubility (Solubility of rufinamide; DMSO, organic solvent or mixture): ≤ 9000 µg/mL; solubility in water (Solubility of rufinamide; water): slightly soluble; hNav1.2 Activation (V1/2) (hNav1.2): −29.5 ± 1.2 mV; hNav1.2 Inactivation (V1/2), steady-state inactivation (hNav1.2): −57.7 ± 0.5 mV; effect on entry or voltage-dependence of hNav1.1 slow inactivation (in words) (hNav1.1): do not influence; activation of the α1/β2/γ2 GABAA receptor (in words) (α1/β2/γ2 GABAA receptor): do not activate; also recorded: do not evoke inward GABAA-mediated currents; hNav1.3 Activation (V1/2) (hNav1.3): −24.5 ± 2.4 mV; hNav1.3 Inactivation (V1/2), steady-state inactivation (hNav1.3): −52.6 ± 1.6 mV"
"OCc1cn(Cc2cccc(F)c2)nn1 [Compound C, 1-[(3-fluorophenyl)methyl]-1H-1,2,3-Triazole-4-hydroxymethyl]",−49.2 ± 0.6,−38.4 ± 1.3,does not influence hNav1.1 gating; also recorded: no longer affects hNav1.1 opening,–,–,–,–,–
